The IC50 is the concentration that gives 50% inhibition.

This is an account of results in patent US9408853B2, “Iridium/rhodium anti-cancer compounds” (University of Warwick, priority 2010, dated 2016).

One data set concerns 9-ethylguanine (9-EtG). Nature of the data set: Interactions with nucleobases: 9-EtG adduct formation (1H NMR). The format is binding. To be noted: 1 mM, 1 mol equiv 9-EtG (ZL33A: 2 mol equiv), D2O, 310 K. A digest of the protocol: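 Complexes (1 mM, equilibrium mixture with their aqua adducts) in 5% MeOD-d4/95% D2O mixed with 1–2 mol equiv 9-EtG in D2O. Adduct formation followed by 1H NMR at 310 K over various time intervals.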

The test system of another data set is A549 cancer cell line. Briefly: Cytotoxicity, MTT assay (Brabec group). The format is cell-based. How it is done:
(§1) The cytotoxicity test of ZL07, ZL33, ZL38 and ZL54 against A2780, SW480, A549 and CH1 cell lines was performed by Viktor Brabec group (Institute of Biophysics, Academy of Sciences of the Czech Republic). After plating, the cells were treated with ZL07, ZL33, ZL38 and ZL54. After 72h of incubation 10 μl of MTT (2.5 mg/ml; CALBIOCHEM) was added to each well and incubated for 4 h in culture conditions. At the end of the incubation period the medium was removed and the formazan product was dissolved in 100 μl DMSO. The cell viability was evaluated by measurement of the absorbance at 570 nm, using an Absorbance Reader SUNRICE TECAN SCHOELLER. […] All experiments were made in quadruplicate.

A further data set relates to CH1 cancer cell line. Briefly: Cytotoxicity, MTT assay (Brabec group). The format is cell-based. How it is done: as §1
On the technique in general: Tetrazolium dyes change colour on reduction, which living cells bring about.

Another data set has as its system SW480 cancer cell line. Briefly: Cytotoxicity, MTT assay (Brabec group). The format is cell-based. The protocol: as §1
Where [1] appears, read: highest test concentration 130 μM.

Where “and” joins values, the source holds several entries; their conditions need not be identical. Identical values can stand only once.

As to `Cc1c(C)c(-c2ccccc2)[c-](C)c1C.F[P-](F)(F)(F)(F)F.[Cl-].[Ir+3].c1cnc2c(c1)ccc1cccnc12` (stereo not drawn) [ZL33, [(η^5-C5Me4C6H5)Ir(phen)Cl]PF6], the “Reaction with 9-EtG, extent of adduct formation” value is 15% and 15.5% in the data set on 9-ethylguanine (9-EtG) (10 min); 42.2% in the data set on 9-ethylguanine (9-EtG) (24 h). In addition, the IC50 in the data set with A549 cancer cell line (72 h incubation, MTT) stood at 11500 ± 2400 nM; in the data set on CH1 cancer cell line (72 h incubation, MTT), 1320 ± 300 nM; in the data set on SW480 cancer cell line (72 h incubation, MTT), 1410 ± 200 nM. Besides, in the data set with A549 cancer cell line (setting [1]), the “cytotoxicity towards A549 (in words)” value was “promising cytotoxicity”. Further, in the data set with CH1 cancer cell line (setting [1]), the “cytotoxicity towards CH1 (in words)” value was “promising cytotoxicity”. The “times more active than cisplatin” value in the data set on SW480 cancer cell line (SW480) was “ca. 6.5 times”. In addition, the “cytotoxicity towards SW480 (in words)” value in the data set with SW480 cancer cell line (setting [1]) is “promising cytotoxicity”.
